The assay relates to UUO-induced renal fibrosis. Description: UUO-induced renal fibrosis, Masson Trichrome staining of kidney sections with image analysis. In kind it is in vivo, Sprague Dawley rats. The following applies: rat UUO kidney, day 14; hSAP 2 mg/kg iv q2d days 0-12; enalapril 200 mg/L in drinking water; HSA control approximately 22%, uninjured kidney approximately 5%. Here is the method: Unilateral Ureter Obstruction (UUO) in the rat is a suitable model of renal fibrosis'. Renal fibrosis was induced in Sprague Dawley rats weighing 200-250 grams. Rats were anesthetized with ketamine (100 mg/kg) and xylazine (5 mg/kg). All surgical procedures were conducted using aseptic techniques.
The left kidney, renal artery and vein were exposed and the ureter occluded using suture. The surgical site was then sutured closed.
Human serum albumin in PBS (group 1) or hSAP in PBS (groups 2-5) was given to animals by intravenous (iv) injection every other day from day 0 to day 12 as detailed in Table 4. Enalapril was be added to the drinking water of animals in groups 2, 5 and 6, beginning on the day of study and continuing until sacrifice (day 14).
On day 14, animals were sacrificed and both the left occluded and right contralateral control kidneys excised.
To determine the extent of fibrosis induced by 14 days of UUO, kidney sections from all groups of animals were stained with Masson Trichrome and the extent of Trichrome positivity determined using image analysis (see FIG. 1). […] However, there was a significant inhibition in Trichrome staining in the animals treated with the combination of enalapril and hSAP (p<0.05; approximately 10%). […]

On to `CCOC(=O)[C@H](CCc1ccccc1)N[C@@H](C)C(=O)N1CCC[C@H]1C(=O)O` [enalapril], for which the “extent of Trichrome staining (collagen deposition in the kidney)” value is reported as “approximately 15%”.
Turning to “hSAP: human serum amyloid P, a pentraxin family protein that suppresses fibrocyte differentiation”, the “extent of Trichrome staining (collagen deposition in the kidney)” value is reported as “approximately 25%”.

Values taken from patent US8247370B2, “Conjoint therapy for treating fibrotic diseases” (Promedior, Inc., priority 2006, dated 2012).
